The values that follow come from US9556165B2 (priority 2012, dated 2017).

Converted amounts (≈) assume the structure as drawn. Like-named read-outs stand apart in the source and are kept apart here.

Common to all, as to type: cell-based
The subject of one assay is E. coli ATCC25922. The experiment in a line: MIC determination, broth microdilution (CLSI). Particulars: Escherichia coli, ATCC25922, strain 1.
The next assay concerns K. pneumoniae 60. Put plainly: MIC determination, broth microdilution (CLSI). The conditions noted are these: Klebsiella pneumoniae, 60, strain 2.
The subject of the next assay is E. cloacae 34654. The experiment in a line: MIC determination, broth microdilution (CLSI). Particulars: Enterobacter cloacae, 34654, strain 3.
A further assay deals with C. freundii K21/3034. The experiment in a line: MIC determination, broth microdilution (CLSI). The conditions noted are these: Citrobacter freundii, K21/3034, strain 4.
For a further assay, the system named is M. morganii 126/3048. The experiment in a line: MIC determination, broth microdilution (CLSI). Particulars: Morganella morganii, 126/3048, strain 5.
The next assay has as its system P. aeruginosa PAO1. The experiment in a line: MIC determination, broth microdilution (CLSI). Particulars: Pseudomonas aeruginosa, PAO1, strain 6.
For assay [1], the system named is P. aeruginosa 2297 (AmpC wt). Put plainly: MIC determination, broth microdilution (CLSI). Particulars: Pseudomonas aeruginosa, strain 7.
Assay [2] deals with P. aeruginosa 2297-con (AmpC derepressed). Put plainly: MIC determination, broth microdilution (CLSI). Particulars: Pseudomonas aeruginosa, read-out: strain 8 MIC, strain 8.
For the next assay, the system named is A. baumannii ATCC15308. Put plainly: MIC determination, broth microdilution (CLSI). The conditions noted are these: Acinetobacter baumannii, ATCC15308, strain 9.
For a further assay, the system named is S. maltophilia ICB7569. Put plainly: MIC determination, broth microdilution (CLSI). Particulars: Stenotrophomonas maltophilia, ICB7569, strain 10.
The next assay has as its system S. aureus 133. Put plainly: MIC determination, broth microdilution (CLSI).
Another assay deals with H. influenzae ATCC 49247. Put plainly: MIC determination, broth microdilution (CLSI). The conditions noted are these: Haemophilus influenzae, ATCC49247, strain 12; broth microdilution; read-out: MIC strain 12 (H. influenzae ATCC 49247).
The subject of a further assay is S. pneumoniae 113. Put plainly: MIC determination, broth microdilution (CLSI). The conditions noted are these: Streptococcus pneumoniae, 113, strain 13; broth microdilution; read-out: MIC strain 13 (S. pneumoniae 113).
A further assay relates to B. fragilis 6688. Put plainly: MIC determination, broth microdilution (CLSI). The conditions noted are these: Bacteroides fragilis, 6688, strain 15; broth microdilution; read-out: MIC strain 15 (B. fragilis 6688).
The subject of the next assay is C. perfringens DSM756. Put plainly: microbe, parasite or virus in culture. The conditions noted are these: Clostridium perfringens, DSM756, read-out: MIC strain 16 (C. perfringens DSM756), strain 16; broth microdilution.
A further assay has as its system E. coli J62. Put plainly: MIC determination, broth microdilution (CLSI). The conditions noted are these: Escherichia coli, J62, strain 17; broth microdilution; read-out: MIC strain 17 (E. coli J62).
For another assay, the system named is E. coli J62-TEM-3. Put plainly: MIC determination, broth microdilution (CLSI). The conditions noted are these: Escherichia coli, J62TEM3, read-out: MIC strain 18 (E. coli J62-TEM-3), strain 18; broth microdilution.
In another assay the test system is Bacteria. Put plainly: MIC determination in combination with β-lactamase inhibitors (constant 4 μg/mL).
[3] abbreviates: Staphylococcus aureus, 133, strain 11, read-out: strain 11 MIC.
Where [4] appears, read: Staphylococcus aureus, 133, strain 14, broth microdilution, read-out: MIC strain 14 (S. aureus 133).

In the case of `CC1(C)[C@H](NC(=O)/C(=N\OCCOc2ccc(C(=N)NCCNC(=N)N)cc2)c2csc(N)n2)C(=O)N1OS(=O)(=O)O` [Example 78, (2Z)-2-(2-Amino-1,3-thiazol-4-yl)-2-[(2-{4-[N-(2-carbamimidamidoethyl)carbamimidoyl]phenoxy}ethoxy)imino]-N-[(3S)-2,2-dimethyl-4-oxo-1-(sulfooxy)azetidin-3-yl]ethanamide], the MIC against E. coli ATCC25922 came to 0.25 µg/mL (≈ 0.399 µM); against K. pneumoniae 60, 0.25 µg/mL (≈ 0.399 µM); against E. cloacae 34654, 0.5 µg/mL (≈ 0.798 µM); in the assay with C. freundii K21/3034, 0.25 µg/mL (≈ 0.399 µM); in the assay with M. morganii 126/3048, 0.5 µg/mL (≈ 0.798 µM); against P. aeruginosa PAO1, 4 µg/mL (≈ 6.38 µM). Moreover, the MIC in [1] is 4 µg/mL (≈ 6.38 µM); in [2], 2 µg/mL (≈ 3.19 µM); with A. baumannii ATCC15308, 0.25 µg/mL (≈ 0.399 µM); against S. maltophilia ICB7569, 8 µg/mL (≈ 12.8 µM); in the assay with S. aureus 133 (setting [3]), at most 0.063 µg/mL; in the assay with S. aureus 133 (setting [4]) it was 1 µg/mL (≈ 1.6 µM). For the same molecule, the MIC with H. influenzae ATCC 49247 is at most 0.063 µg/mL; with S. pneumoniae 113, at most 0.063 µg/mL; in the assay with B. fragilis 6688, 4 µg/mL (≈ 6.38 µM); in the assay on C. perfringens DSM756 it was 2 µg/mL (≈ 3.19 µM); with E. coli J62, 0.5 µg/mL (≈ 0.798 µM); in the assay on E. coli J62-TEM-3, 4 µg/mL (≈ 6.38 µM). The “MIC strain 19 (E. coli J62-TEM-3 + 4 μg/mL clavulanic acid)” value in the assay on Bacteria is 0.25 µg/mL. Also, the “MIC strain 20 (E. coli J62-TEM-3 + 4 μg/mL sulbactam)” value in the assay on Bacteria is 0.5 µg/mL. In addition, in the assay on Bacteria, the “MIC strain 21 (E. coli J62-TEM-3 + 4 μg/mL tazobactam)” value amounted to 0.5 µg/mL.

Consider `CC1(C)[C@H](NC(=O)/C(=N\OCCOc2ccc(C(=N)NCCN)nc2)c2csc(N)n2)C(=O)N1OS(=O)(=O)O` [Example 82, (2Z)-2-{[2-({6-[N-(2-Aminoethyl)carbamimidoyl]pyridin-3-yl}oxy)ethoxy]imino}-2-(2-amino-1,3-thiazol-4-yl)-N-[(3S)-2,2-dimethyl-4-oxo-1-(sulfooxy)azetidin-3-yl]ethanamide], for which the MIC was 0.25 µg/mL (≈ 0.427 µM) against E. coli ATCC25922; 0.125 µg/mL (≈ 0.213 µM) against K. pneumoniae 60; 0.5 µg/mL (≈ 0.854 µM) against E. cloacae 34654; 0.25 µg/mL (≈ 0.427 µM) in the assay on C. freundii K21/3034; 0.5 µg/mL (≈ 0.854 µM) in the assay on M. morganii 126/3048; 8 µg/mL (≈ 13.7 µM) in the assay on P. aeruginosa PAO1. Besides, the MIC was 16 µg/mL (≈ 27.3 µM) in assay [1]; 8 µg/mL (≈ 13.7 µM) in [2]; 4 µg/mL (≈ 6.83 µM) against A. baumannii ATCC15308; 32 µg/mL (≈ 54.6 µM) against S. maltophilia ICB7569; at most 0.063 µg/mL in the assay with S. aureus 133 (setting [3]); 8 µg/mL (≈ 13.7 µM) with S. aureus 133 (setting [4]). For the same molecule, the MIC in the assay with H. influenzae ATCC 49247 is at most 0.063 µg/mL; in the assay with S. pneumoniae 113, at most 0.063 µg/mL; in the assay with B. fragilis 6688 it was 4 µg/mL (≈ 6.83 µM); with C. perfringens DSM756 it was 4 µg/mL (≈ 6.83 µM); with E. coli J62, 0.25 µg/mL (≈ 0.427 µM); in the assay on E. coli J62-TEM-3 it was 8 µg/mL (≈ 13.7 µM). Moreover, in the assay on Bacteria, the “MIC strain 19 (E. coli J62-TEM-3 + 4 μg/mL clavulanic acid)” value came out at 0.25 µg/mL. Further, in the assay with Bacteria, the “MIC strain 20 (E. coli J62-TEM-3 + 4 μg/mL sulbactam)” value worked out at 0.25 µg/mL. Besides, the “MIC strain 21 (E. coli J62-TEM-3 + 4 μg/mL tazobactam)” value with Bacteria was found to be 0.5 µg/mL.

With `CC1(C)[C@H](NC(=O)/C(=N\OCCOc2ccc(C(=N)NCCCN)cc2)c2csc(N)n2)C(=O)N1OS(=O)(=O)O` [Example 83, (2Z)-2-[(2-{4-[N-(3-Aminopropyl)carbamimidoyl]phenoxy}ethoxy)imino]-2-(2-amino-1,3-thiazol-4-yl)-N-[(3S)-2,2-dimethyl-4-oxo-1-(sulfooxy)azetidin-3-yl]ethanamide], the MIC in the assay with E. coli ATCC25922 is 0.125 µg/mL (≈ 0.209 µM); in the assay on K. pneumoniae 60, 0.25 µg/mL (≈ 0.418 µM); in the assay on E. cloacae 34654, 0.25 µg/mL (≈ 0.418 µM); against C. freundii K21/3034 it was 0.125 µg/mL (≈ 0.209 µM); in the assay on M. morganii 126/3048 it was 0.5 µg/mL (≈ 0.835 µM); against P. aeruginosa PAO1 it was 2 µg/mL (≈ 3.34 µM). The MIC in assay [1] was 4 µg/mL (≈ 6.68 µM); in assay [2] it was 4 µg/mL (≈ 6.68 µM); against A. baumannii ATCC15308 it was 0.25 µg/mL (≈ 0.418 µM); in the assay with S. maltophilia ICB7569, 16 µg/mL (≈ 26.7 µM); with S. aureus 133 (setting [3]), at most 0.063 µg/mL; with S. aureus 133 (setting [4]), 2 µg/mL (≈ 3.34 µM). Further, the MIC with H. influenzae ATCC 49247 is at most 0.063 µg/mL; in the assay on S. pneumoniae 113, at most 0.063 µg/mL; with B. fragilis 6688, 4 µg/mL (≈ 6.68 µM); in the assay on C. perfringens DSM756, 2 µg/mL (≈ 3.34 µM); in the assay with E. coli J62, 0.25 µg/mL (≈ 0.418 µM); with E. coli J62-TEM-3, 4 µg/mL (≈ 6.68 µM). Moreover, in the assay on Bacteria, the “MIC strain 19 (E. coli J62-TEM-3 + 4 μg/mL clavulanic acid)” value was determined as 0.125 µg/mL. Also, the “MIC strain 20 (E. coli J62-TEM-3 + 4 μg/mL sulbactam)” value with Bacteria was 0.25 µg/mL. For the same molecule, in the assay with Bacteria, the “MIC strain 21 (E. coli J62-TEM-3 + 4 μg/mL tazobactam)” value was found to be 0.25 µg/mL.
